Literature values as cited in patent publication US20070203140A1, “N-hydroxyguanidines as modulators of indoleamine 2,3-dioxygenase” (priority 2006, published 2007).

Experiments:
[1] = test system: LLC tumors; settings: LLC tumors in C57B1/6 mice, versus placebo
[2] = test system: P815 tumor; settings: pre-immunized immune-competent mice

SMILES: Cn1cc(C[C@H](N)C(=O)O)c2ccccc21 [Example 1-MT, 1-methyl-tryptophan]
- formation of tumors [1]: markedly delayed
- growth of tumors [2]: inhibited
